In US20170008888A1 (KYORIN PHARMACEUTICAL CO., LTD., priority 2014, published 2017) one finds inhibition data, which are given here for 16 compounds.

The target in assay [1] is T1, AurA (Homo sapiens, UniProt O14965).
T1 construct: screened for activity against several kinases in Jurkat cells; endogenous in cells; host or cells: Jurkat cell lysate
T1 sequence (O14965 1-403): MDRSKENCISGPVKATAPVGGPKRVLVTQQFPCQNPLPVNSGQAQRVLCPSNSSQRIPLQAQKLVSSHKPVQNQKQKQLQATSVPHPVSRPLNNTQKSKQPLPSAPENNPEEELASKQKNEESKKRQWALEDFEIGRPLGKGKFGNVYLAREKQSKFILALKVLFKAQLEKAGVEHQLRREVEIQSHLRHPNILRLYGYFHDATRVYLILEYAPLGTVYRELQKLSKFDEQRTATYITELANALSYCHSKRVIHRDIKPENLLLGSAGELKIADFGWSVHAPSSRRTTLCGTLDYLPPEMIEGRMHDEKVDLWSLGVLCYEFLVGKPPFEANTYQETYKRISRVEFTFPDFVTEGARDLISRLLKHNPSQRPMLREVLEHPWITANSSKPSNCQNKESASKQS
The assay can be described thus: Probe-based (AX9989) kinase profiling in Jurkat lysate: AurA. The assay is classed as binding. To be noted: read-out: Kinase inhibition % at indicated screening concentration: AurA; for inhibition at 1 µM: screening concentration 1.0 μM; for inhibition at 0.1 µM: screening concentration 0.1 μM. The method in brief: (§1)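 Gel-filtered Jurkat lysate (HEPES pH 7.5, 20 mM MnCl2, 5 mg/ml) was pre-incubated 15 min with compound at room temperature, then labelled with 5 μM acyl-phosphate ATP probe AX9989. Tryptic probe-labelled active-site peptides were streptavidin-captured and quantified by LC/MS. Percent inhibition reflected the decrease in labelled-peptide intensity versus no compound.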

Assay [2] concerns the target T2, TAO2 (Homo sapiens, UniProt Q9UL54).
T2 construct: screened for activity against several kinases in Jurkat cells; endogenous in cells; host or cells: Jurkat cell lysate
T2 sequence (Q9UL54 1-1235): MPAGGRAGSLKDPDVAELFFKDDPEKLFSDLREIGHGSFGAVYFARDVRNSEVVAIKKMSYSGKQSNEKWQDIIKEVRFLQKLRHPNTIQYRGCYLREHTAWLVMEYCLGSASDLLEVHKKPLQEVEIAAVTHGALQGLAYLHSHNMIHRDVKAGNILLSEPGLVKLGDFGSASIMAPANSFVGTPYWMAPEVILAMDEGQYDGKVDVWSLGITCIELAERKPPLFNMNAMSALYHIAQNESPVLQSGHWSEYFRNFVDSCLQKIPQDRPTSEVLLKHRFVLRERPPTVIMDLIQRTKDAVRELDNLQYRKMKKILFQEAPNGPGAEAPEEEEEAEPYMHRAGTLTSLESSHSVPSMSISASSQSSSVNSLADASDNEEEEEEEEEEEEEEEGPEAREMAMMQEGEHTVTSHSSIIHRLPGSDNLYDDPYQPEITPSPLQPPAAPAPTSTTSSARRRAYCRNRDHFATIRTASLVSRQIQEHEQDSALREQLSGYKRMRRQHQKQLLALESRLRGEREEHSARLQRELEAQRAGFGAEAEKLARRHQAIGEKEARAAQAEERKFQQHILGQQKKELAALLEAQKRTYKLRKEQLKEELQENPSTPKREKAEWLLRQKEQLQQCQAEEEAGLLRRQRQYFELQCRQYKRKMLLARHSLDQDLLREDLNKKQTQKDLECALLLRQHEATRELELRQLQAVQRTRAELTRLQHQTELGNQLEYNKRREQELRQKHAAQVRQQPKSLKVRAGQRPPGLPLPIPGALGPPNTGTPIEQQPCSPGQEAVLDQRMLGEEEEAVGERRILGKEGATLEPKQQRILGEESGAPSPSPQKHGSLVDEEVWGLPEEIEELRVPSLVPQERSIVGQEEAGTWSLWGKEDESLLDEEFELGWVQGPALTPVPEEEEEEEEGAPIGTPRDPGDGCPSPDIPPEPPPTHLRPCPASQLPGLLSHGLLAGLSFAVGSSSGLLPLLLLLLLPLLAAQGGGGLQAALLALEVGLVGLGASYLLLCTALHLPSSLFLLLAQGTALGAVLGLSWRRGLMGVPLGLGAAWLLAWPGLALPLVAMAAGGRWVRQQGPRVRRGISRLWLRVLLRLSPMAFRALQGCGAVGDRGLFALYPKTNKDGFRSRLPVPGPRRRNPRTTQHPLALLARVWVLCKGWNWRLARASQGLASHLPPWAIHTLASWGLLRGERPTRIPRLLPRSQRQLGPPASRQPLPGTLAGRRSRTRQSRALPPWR
Put plainly: Probe-based (AX9989) kinase profiling in Jurkat lysate: TAO2. The assay is classed as binding. The note with it: read-out: Kinase inhibition % at indicated screening concentration: TAO2; for inhibition at 1 µM: screening concentration 1.0 μM; for inhibition at 0.1 µM: screening concentration 0.1 μM. The method in brief: as §1

`CCOc1cc(C(=O)N2CCCCC2)ccc1Nc1cc2c(cn1)N(C)C(=O)c1ccccc1N2C` [Compound 12]: the inhibition at 1 µM in assay [1] and in assay [2] was not above 35% throughout.

`CCOc1cc(C(=O)N2CCC(N3CCCC3)C2)ccc1Nc1cc2c(cn1)N(C)C(=O)c1occc1N2C` (centres unmarked) [Compound 15]: the inhibition at 0.1 µM in assay [1] and in assay [2] was not above 35% throughout.

As to `CCOc1cc(C(=O)N2CC[C@H](O)C2)ccc1Nc1cc2c(cn1)N(C)C(=O)c1occc1N2C` [Compound 17], the inhibition at 0.1 µM in assay [1] and in assay [2] was not above 35% throughout.

Regarding `C=CCN1CCN(C(=O)c2ccc(Nc3cc4c(cn3)N(C)C(=O)c3ccccc3N4C)c(OCC)c2)CC1` [Compound 21], the inhibition at 0.1 µM in assay [1] and in assay [2] was not above 35% each time.

With `CCOc1cc(C(=O)N2CC[C@@H](N3CCCC3)C2)ccc1Nc1cc2c(cn1)N(C)C(=O)c1ccccc1N2C` [Compound 24], the inhibition at 0.1 µM in assay [1] and in assay [2] was not above 35% throughout.

`CCOc1cc(C(=O)N2CC[C@@H](N(C)C)C2)ccc1Nc1cc2c(cn1)N(C)C(=O)c1occc1N2C` [Compound 25]: the inhibition at 0.1 µM in assay [1] and in assay [2] was not above 35% in each case.

Take `CCOc1cc(C(=O)N(C)CCN2CCCC2)ccc1Nc1cc2c(cn1)N(C)C(=O)c1ccccc1N2C` [Compound 28]: the inhibition at 0.1 µM in assay [1] and in assay [2] was not above 35% throughout.

Take `CCOc1cc(C(=O)N(C)CCn2ccnc2)ccc1Nc1cc2c(cn1)N(C)C(=O)c1ccccc1N2C` [Compound 30]: the inhibition at 0.1 µM in assay [1] and in assay [2] was not above 35% in each case.

Consider `CCOc1cc(C(=O)N2CCNC[C@@H]2C)ccc1Nc1cc2c(cn1)N(C)C(=O)c1ccccc1N2C` [Compound 31], for which the inhibition at 0.1 µM in assay [1] and in assay [2] was not above 35% in each case.

Turning to `CCOc1cc(C(=O)N2CCN(CCO)CC2)ccc1Nc1cc2c(cn1)N(C)C(=O)c1ccccc1N2C` [Compound 37], the inhibition at 0.1 µM in assay [1] and in assay [2] was not above 35% in each case.

With `CCOc1cc(C(=O)N2CCN(C3CC3)CC2)ccc1Nc1cc2c(cn1)N(C)C(=O)c1ccccc1N2C` [Compound 39], the inhibition at 0.1 µM in assay [1] and in assay [2] was not above 35% in each case.

With `CCOc1cc(C(=O)N2CCC(N3CCN(C)CC3)CC2)ccc1Nc1cc2c(cn1)N(C)C(=O)c1ncccc1N2C` [Compound 40], the inhibition at 1 µM in assay [1] and in assay [2] was not above 35% throughout.

Regarding `CCOc1cc(C(=O)N(C)CCN(CC)CC)ccc1Nc1cc2c(cn1)N(C)C(=O)c1ccccc1N2C` [Compound 42], the inhibition at 1 µM in assay [1] and in assay [2] was not above 35% in each case.

With `CCOc1cc(C(=O)N2CCC(NC)C2)ccc1Nc1cc2c(cn1)N(C)C(=O)c1occc1N2C` (centres unmarked) [Compound 43], the inhibition at 0.1 µM in assay [1] and in assay [2] was not above 35% throughout.

With `CCOc1cc(C(=O)NCCN2CCN(C)CC2)ccc1Nc1cc2c(cn1)N(C)C(=O)c1ccccc1N2C` [Compound 44], the inhibition at 1 µM in assay [1] and in assay [2] was not above 35% throughout.

Regarding `CN1C(=O)c2ccccc2N(C)c2cc(N[C@H]3CC[C@H](NC4=NCCO4)CC3)ncc21` [Compound 45], the inhibition at 1 µM in assay [1] and in assay [2] was not above 35% throughout.
